Data on four compounds can be found in patent US11633506B2, “Using targeted radiotherapy (TRT) to drive anti-tumor immune response to immunotherapies” (Wisconsin Alumni Research Foundation, priority 2016, dated 2023).

Data set [1] relates to in vivo cancer and cancer stem cell models. The note with it: regardless of anatomic location; cited from earlier work.
The test system of data set [2] is B78 melanoma. Description: ^124I-NM404 PET/CT imaging. The data set is classed as in vivo, mouse. The note with it: IV; ~200 mm^3 B78 tumor; image at 71 h. An excerpt: FIG. 5 is an image showing selective uptake of ^124I-NM404 by B78 melanoma. A mouse bearing a ˜200 mm^3 B78 tumor received IV ^124I-NM404 and had serial PET/CT scans done.
^131I-NM404 has shown selective uptake in vitro in >95% of tumor lines (human and mouse), with poor uptake by non-malignant cells, and with similar tumor specificity seen in vivo. This includes selective uptake in vivo with the B78 tumor (FIG. 5). In our preliminary dosimetry study, we gave ^124I-NM404 to C57BL/6 mice and characterized the time course of TRT exposure by serial PET/CT imaging (as in FIG. 5). […] After those four weeks, the remaining TRT dose to the B78 tumor would be less than 0.25 Gy. We will replicate the data we obtained in our 2-tumor model using xRT (FIG. 3), but use the lowest possible dose of targeted ^131I-NM404 TRT to enable effective elimination of tumor-induced tolerance at all sites of distant disease. However, unlike xRT, which delivers all dose in minutes and is then done, TRT deposits dose over time, depending upon both the biological and physical half-life of the targeted isotope (8 day t½ for ^131I). We want an initial TRT effect at the distant tumor sites to eradicate immune tolerance; however we want the immunosuppressive TRT effect to then be minimal when we give the IT-IC to induce ADCC and the in situ vaccine anti-tumor effects. […]

Data set [3] deals with tumor lines (human and mouse). The data set can be described thus: selective uptake in vitro in tumor lines. The class given is cell-based. The note with it: poor uptake by non-malignant cells. The source says:
(§1) ^131I-NM404 has shown selective uptake in vitro in >95% of tumor lines (human and mouse), with poor uptake by non-malignant cells, and with similar tumor specificity seen in vivo. This includes selective uptake in vivo with the B78 tumor (FIG. 5). In our preliminary dosimetry study, we gave ^124I-NM404 to C57BL/6 mice and characterized the time course of TRT exposure by serial PET/CT imaging (as in FIG. 5). […] After those four weeks, the remaining TRT dose to the B78 tumor would be less than 0.25 Gy. We will replicate the data we obtained in our 2-tumor model using xRT (FIG. 3), but use the lowest possible dose of targeted ^131I-NM404 TRT to enable effective elimination of tumor-induced tolerance at all sites of distant disease. However, unlike xRT, which delivers all dose in minutes and is then done, TRT deposits dose over time, depending upon both the biological and physical half-life of the targeted isotope (8 day t½ for ^131I). We want an initial TRT effect at the distant tumor sites to eradicate immune tolerance; however we want the immunosuppressive TRT effect to then be minimal when we give the IT-IC to induce ADCC and the in situ vaccine anti-tumor effects. This is essential to allow full tumor destruction at all sites.

Data set [4] has as its system B78 tumor. Description: Monte Carlo dosimetry from serial ^124I-NM404 PET/CT. The class given is in vivo, C57BL/6 mice.
From the text: as §1
(§2) Using the dosimetry calculations from our preliminary data, we estimated that a dose of 3 μCi of ^131I-NM404, should deliver an equivalent of ˜0.2 Gy to the tumor site, a dose that we hypothesized should not be immunosuppressive and should not prevent lymphocyte-mediated tumor destruction. As noted above, this is the dose we estimated would remain yet to be delivered 28 days after an initial ^131I-NM404 dose of 60 μCi. We thus evaluated groups of mice bearing a single 200 mm^3 B78 tumor. On day 0, all mice got 12 Gy xRT to their tumor, and on days 6-10, all got 50 mcg/d of IT-IC. One group also got 3 μCi of ^131I-NM404 on d-0 (˜0.2 Gy). […] We thus hypothesize that if we use an initial dose of 60 μCi of ^131I-NM404 TRT on day-22, it would effectively block the tolerogenic effect of distant tumors, yet enable xRT on day 0 and IT-IC on days 6-10 (28 d after the TRT) to the first tumor to function as an in situ vaccine, inducing an adaptive response that then eradicates all tumors.
Based on the preliminary data described above in Examples 1-4, studies have been done to move these concepts into in vivo testing using TRT. […] This was done in order to estimate the amount of ^131I-NM404 that would be needed to approximate ˜2 Gy of xRT.
In most clinical scenarios, it is not feasible to deliver external beam, even low dose, to all tumor sites without eliciting marked bone marrow depletion and leukopenia that would result in immunosuppression. […]

In data set [5] the test system is B78 tumor. The data set can be described thus: ^131I-NM404 with xRT+IT-IC, single B78 tumor. The class given is in vivo, mice.
From the text: as §2
Using the data summarized in Examples 7 and 8, a study was done in mice bearing 2 separate B78 tumors. Mice received the estimated required systemic ^131I-NM404 dose followed by xRT and local immunotherapy to the in situ vaccine site. […]

Data set [6] has as its system B78 tumors. The data set can be described thus: low dose ^131I-NM404 TRT: blood counts and tumor infiltrating T cells. The class given is in vivo, C57BL/6 mice. The source says: (§3) In order to then determine if a ˜2 Gy equivalent dose of ^131I-NM404 would have the desired effects against intratumor lymphoid cells (particularly Tregs), 2 separate approaches have been pursued.
A second approach involved treating mice with B78 tumors with these same doses of ^131I-NM404. […] This observation again supports our hypothesis that it will be feasible to use TRT to overcome Treg-mediated CIT in order to rescue an in situ vaccine effect in animals bearing multiple tumors.
In most clinical scenarios, it is not feasible to deliver external beam, even low dose, to all tumor sites without eliciting marked bone marrow depletion and leukopenia that would result in immunosuppression. Here we tested whether TRT could be administered systemically to specifically deplete tumor infiltrating suppressive immune cells (Tregs), without triggering systemic immune cell depletion and leukopenia. Dosimetry studies in this B78 melanoma tumor model were performed using positron-emitting ^124I-NM404 confirm tumor-selective uptake of NM404 (FIG. 12A). C57BL/6 mice bearing B78 tumors were treated with 60 μCi ^131I-NM404. This activity approximates the amount of ^131I-NM404 necessary to deliver ˜2 Gy TRT to a B78 tumor. Peripheral blood and tumor samples were collected in untreated control mice (C) and at 8 day intervals (T1=d8, T2=d16, T3=d24, T4=d32) thereafter.

Data set [7] concerns radiosensitive lymphoma tumor. Description: ^131I-NM404 in mice bearing a radiosensitive lymphoma tumor. The note with it: ~2 Gy equivalent dose. The class given is in vivo.
From the text: as §3

In data set [8] the test system is B78 tumor tissue. Description: RT-PCR gene expression of immune signatures in tumor tissue after TRT. The class given is in vivo, mice. The note with it: TRT alone; pretreatment and 8 d intervals. As to the method:
Finally, to characterizing the immunological effects of TRT on the immune cells within tumors, we have treated B78 bearing mice with ^131I-NM404 and collected tumor tissue at pretreatment and at half-life (8 d) intervals thereafter. These tissues were then analyzed by RT-PCR for gene expression of a panel of immune signatures.

Data set [9] has as its system two B78 tumors. The data set can be described thus: ^131I-NM404 + xRT + IT-IC in mice bearing two B78 tumors. The class given is in vivo, C57BL/6 mice. The note with it: 60 μCi day 1, 12 Gy xRT to primary day 8, IT-IC days 13-17. An excerpt: Using the data summarized in Examples 7 and 8, a study was done in mice bearing 2 separate B78 tumors. Mice received the estimated required systemic ^131I-NM404 dose followed by xRT and local immunotherapy to the in situ vaccine site. […] Further testing, and modification of some of the experimental variables, is underway in order to try to maximize the desired effect of blocking CIT without suppressing the in situ vaccine effect. More details regarding these experiments are disclosed in Example 10 below.
Given the capacity of low dose ^131I-NM404 TRT to deplete tumor-infiltrating Tregs without rendering a mouse leukopenic, we tested whether low dose ^131I-NM404 might effectively overcome concomitant immune tolerance. C57BL/6 mice bearing two B78 tumors were treated with 60-μCi ^131I-NM404 on day 1 (NM404), as indicated. After one half-life (day 8), animals received 12 Gy xRT or no xRT to the primary tumor (in situ vaccine site). Control mice receiving no ^131I-NM404 were treated to the secondary tumor as indicated (0, 2, or 12 Gy). Mice received daily IT injections of IC to the primary tumor (in situ vaccine site), as indicated, on days 13-17.

Data set [10] concerns Tregs. Description: Treg depletion by diphtheria toxin in DEREG mice with primary and secondary B78 tumors treated with xRT+IT-IC. The class given is in vivo. The note with it: IP diphtheria toxin vs PBS, with xRT+IT-IC to primary tumor.
Where [11] appears, read: 3 and 4 half-life time points, vs untreated baseline and 2nd half-life.

“Also recorded” adds a separate entry of the source.

With `C[N+](C)(C)CCOP(=O)([O-])OCCCCCCCCCCCCCCCCCCc1ccc(I)cc1` [NM404, 18-(p-iodophenyl)octadecyl phosphocholine], the “tumor uptake / targeting across in vivo models” value in data set [1] is given as “near universal tumor uptake in all but three of over 70 in vivo models”.

For the compound `C[N+](C)(C)CCOP(=O)([O-])OCCCCCCCCCCCCCCCCCCc1ccc([124I])cc1` [^124I-NM404], the “tumor uptake on PET/CT” value in data set [2] is “Excellent tumor uptake; also recorded: selective uptake by the tumor with some residual background uptake by the heart and liver”.

Regarding `C[N+](C)(C)CCOP(=O)([O-])OCCCCCCCCCCCCCCCCCCc1ccc([131I])cc1` [^131I-NM404], the “tumor lines with selective uptake in vitro” value in [3] is more than 95%. Moreover, in data set [4] (3 μCi), the “dose delivered to the tumor site” value was approximately 0.2 Gy. The “remaining TRT dose to the B78 tumor” value in data set [4] (after four weeks, initial 60 μCi) is “less than 0.25 Gy”. Further, the “activity necessary to deliver ~2 Gy TRT to a B78 tumor” value in [4] (mouse, in vivo) was approximately 60 μCi. The “activity needed to deliver ~3 Gy to an established B78 tumor” value in data set [4] (over a four week period of decay) is approximately 60 μCi. Also, in data set [5] (3 μCi on d-0 (~0.2 Gy), 12 Gy xRT day 0, IT-IC days 6-10), the “tumor eradication by xRT+IT-IC with vs without TRT” value is recorded as “same degree of tumor eradication; also recorded: equally effective”. Moreover, the “local in situ vaccine effect” value in [5] (estimated required systemic TRT dose, mice with one tumor) is on record as “did not appear to interfere with the local in situ vaccine effect”. Moreover, the “intratumor effector CD8+ T cells” value in data set [6] (2 half-life time point) is given as “decrease in intratumor effector CD8+ T cells”. Besides, the “intratumor FoxP3+ Tregs” value in data set [6] (2 half-lifes after TRT) was “decrease in intratumor FoxP3+ Tregs”. In addition, in [6] (setting [11]), the “intratumor CD8+ effector T cells” value is “increase in intratumor CD8+ effector T cells” and the “intratumor Tregs” value is listed as “further decline in the levels of intratumor Tregs”. Also, in data set [6] (60 μCi, d8-d32), the “level of tumor infiltrating CD8+ effector T cells” value was “did not significantly affect the level of tumor infiltrating CD8+ effector T cells” and the “tumor infiltrating FoxP3+ Tregs” value was “significantly depleted”. Further, the systemic leukopenia entry in data set [6] (60 μCi, peripheral blood d8-d32) is recorded as “did not result in any significant systemic leukopenia”. Further, the “circulating lymphoid cells (peripheral complete blood counts)” value in data set [6] (~2 Gy equivalent dose) is “did not cause either substantial shrinkage/slowing of the B78 tumor or any evident depletion of circulating lymphoid cells”. The B78 tumor growth result in data set [6] (~2 Gy equivalent dose, TRT alone) was “did not cause either substantial shrinkage/slowing of the B78 tumor”. Also, the “systemic lymphopenia (peripheral complete blood count)” value in data set [6] (~2 Gy equivalent dose, half-life (8 d) intervals) is on record as “no systemic lymphopenia at any time point”. For the same compound, the lymphoid tumor response result in data set [7] was “potent lymphoid tumor shrinkage/dose-dependent inhibition”. Also, in data set [8], the “gene expression of immune signatures” value was “striking changes in expression of tumor cell markers of immunsusceptibility and in genes normally expressed only by immune cells”. Besides, the “concomitant immune tolerance (CIT) / primary and secondary tumor response” value in data set [9] is “did appear to attenuate CIT; also recorded: effectively overcomes concomitant immune tolerance and rescues the systemic anti-tumor effect of in situ vaccination”. In data set [1], the “tumor uptake / targeting across in vivo models” value was “nearly universal tumor targeting properties in over 60 in vivo cancer and cancer stem cell models”.

As for diphtheria toxin, the “primary and secondary tumor response” value in [10] was “improved primary (FIG. 9B) and secondary (FIG. 9C) tumor response”.
